Measurements from article PMC11250030, “Strategic Single-Residue Substitution in the Antimicrobial Peptide Esc(1–21) Confers Activity against Staphylococcus aureus, Including Drug-Resistant and Biofilm Phenotype” (ACS Infectious Diseases, 2024).
≈ marks a conversion by molar mass, not a printed value. Like-named read-outs stand apart in the source and are kept apart here. Where a SMILES comes first, the peptide text is derived from it. [ ]: non-standard residue; d: D form. Aib = CC(C)(N)C(=O)O

How the values were obtained:
in vitro = in vitro ADME, bovine; details: serum
Method: The proteolytic stability of peptide 2 was evaluated in bovine serum (ThermoFisher Scientific, Milan, Italy). Peptide 2 was dissolved in sterile water (200 μM) and incubated with 50% bovine serum at 37 °C. The reaction mixture was incubated at different time intervals (1, 3, 4, 5, 16, and 24 h). An aliquot of the mixture was taken at each pre-established time point and MeCN was added to precipitate serum proteins. Then, the mixture was cooled to 4 °C, centrifuged for 15 min ([…]), and then the supernatant was checked by HPLC using a Phenomenex Jupiter column (4 μm Proteo 90 Å 250 × 21.20 mm) with a linear gradient of MeCN (0.1% TFA) and H2O (0.1% TFA) from 10 to 90% in 20 min and with a flow rate of 1 mL/min.[73] The percentage of the nondegraded peptide was calculated by integrating the peak area of each HPLC chromatogram. Data points are the mean ± SD of three different experiments.

S. aureus MDR #1 = test system: S. aureus MDR #1
Method: (§1) Antimicrobial susceptibility was evaluated by the broth microdilution assay to determine the MIC as already described by Buommino et al.[71] The bacterial suspension in Muller Hinton (MH) at a concentration of 2 × 10^6 cell/mL in the mid-log phase was prepared. Aliquots of 50 μL of the bacterial suspension were added to 50 μL of MH containing serial 2-fold dilutions of the peptides (from 100 to 0.78 μM) that were previously prepared in a 96-well plate. […] Each measurement was performed in triplicate. MICs were obtained from three identical readings of four independent experiments. The antibiofilm activity of the tested peptides was evaluated as reported by Casciaro et al.[72] Microbial culture was grown at 37 °C until it reached an optical density (OD) of 0.8 (λ = 590 nm), and then it was diluted to a cell density of 1 × 10^6 colony-forming units (CFUs)/mL.

A. baumannii ATCC 19606 = test system: A. baumannii ATCC 19606
Method: as §1

S. aureus MDR #3 = test system: S. aureus MDR #3
Method: as §1

[1] = test system: S. epidermidis ATCC 12228
Method: as §1

S. aureus MDR #2 = test system: S. aureus MDR #2
Method: as §1

S. aureus MDR #4 = test system: S. aureus MDR #4
Method: as §1

E. coli ATCC 25922 = test system: E. coli ATCC 25922
Method: as §1

S. aureus ATCC 25923 = test system: S. aureus ATCC 25923
Method: as §1

P. aeruginosa ATCC 25853 = test system: P. aeruginosa ATCC 25853
Method: as §1

HaCaT cells = test system: HaCaT cells; design: method as in PMID 26162435; details: previously described; cited from earlier work
[2] = MDR clinical isolate 13164462, broth microdilution, 16–18 h at 37 °C, three identical readings of four independent experiments
[3] = MDR clinical isolate 13667073, broth microdilution, 16–18 h at 37 °C, three identical readings of four independent experiments

| MIC (S. aureus MDR #1; MDR #1) | MIC (S. aureus MDR #3; MDR #3) | MIC (S. aureus MDR #2; MDR #2) | MIC (S. aureus ATCC 25923; ATCC 25923) | SMILES | remaining at 1 h, 200 μM (in vitro) | remaining at 3 h, 200 μM (in vitro) | remaining at 4 h, 200 μM (in vitro) | remaining at 5 h, 200 μM (in vitro) | remaining at 16 h, 200 μM (in vitro) | remaining at 24 h, 200 μM (in vitro) | MIC (S. aureus MDR #1; [2]) | MIC (A. baumannii ATCC 19606) | MIC (S. aureus MDR #3; [3]) | MIC [1] | MIC (S. aureus MDR #2; MDR clinical isolate 13165968, broth microdilution, 16–18 h at 37 °C, three identical readings of four independent experiments) | MIC (S. aureus MDR #4) | MIC (E. coli ATCC 25922) | MIC (S. aureus ATCC 25923; broth microdilution, Muller Hinton, 16–18 h at 37 °C, three identical readings of four independent experiments) | MIC (P. aeruginosa ATCC 25853) | lethal dose causing 50% killing (LD50) (HaCaT cells) |
| --- | --- | --- | --- | --- | --- | --- | --- | --- | --- | --- | --- | --- | --- | --- | --- | --- | --- | --- | --- | --- |
| – | – | – | – | CC[C@H](C)[C@H](NC(=O)CN)C(=O)N[C@@H](Cc1ccccc1)C(=O)N[C@@H](CO)C(=O)N[C@@H](CCCCN)C(=O)N[C@@H](CC(C)C)C(=O)N[C@@H](C)C(=O)NC(C)(C)C(=O)N[C@@H](CCCCN)C(=O)N[C@@H](CCCCN)C(=O)N[C@H](C(=O)N[C@@H](CCCCN)C(=O)N[C@@H](CC(N)=O)C(=O)N[C@@H](CC(C)C)C(=O)N[C@@H](CC(C)C)C(=O)N[C@H](C(=O)N[C@@H](CO)C(=O)NCC(=O)N[C@@H](CC(C)C)C(=O)N[C@@H](CCCCN)C(=O)NCC(N)=O)[C@@H](C)CC)[C@@H](C)CC [peptide 2] (H-GIFSKLA[Aib]KKIKNLLISGLKG-NH2) | ~90% | ~75% | ~65% | ~40% | ~40% | ~15% | 12.5 µM (≈ 27.7 µg/mL) | 0.78 µM (≈ 1.73 µg/mL) | 12.5 µM (≈ 27.7 µg/mL) | 0.78 µM (≈ 1.73 µg/mL) | 12.5 µM (≈ 27.7 µg/mL) | 6.25 µM (≈ 13.8 µg/mL) | 0.78 µM (≈ 1.73 µg/mL) | 12.5 µM (≈ 27.7 µg/mL) | 3.12 µM (≈ 6.9 µg/mL) | – |
| >100 µM | >100 µM | >100 µM | >100 µM | CC[C@H](C)[C@H](NC(=O)CN)C(=O)N[C@@H](Cc1ccccc1)C(=O)N[C@@H](CO)C(=O)N[C@@H](CCCCN)C(=O)N[C@@H](CC(C)C)C(=O)N[C@@H](C)C(=O)N1CCC[C@H]1C(=O)N[C@@H](CCCCN)C(=O)N[C@@H](CCCCN)C(=O)N[C@H](C(=O)N[C@@H](CCCCN)C(=O)N[C@@H](CC(N)=O)C(=O)N[C@@H](CC(C)C)C(=O)N[C@@H](CC(C)C)C(=O)N[C@H](C(=O)N[C@@H](CO)C(=O)NCC(=O)N[C@@H](CC(C)C)C(=O)N[C@@H](CCCCN)C(=O)NCC(N)=O)[C@@H](C)CC)[C@@H](C)CC [peptide 3] (H-GIFSKLAPKKIKNLLISGLKG-NH2) | – | – | – | – | – | – | – | 1.56 µM (≈ 3.47 µg/mL) | – | 6.25 µM (≈ 13.9 µg/mL) | – | >100 µM | 3.12 µM (≈ 6.94 µg/mL) | – | 6.25 µM (≈ 13.9 µg/mL) | – |
| >100 µM | >100 µM | >100 µM | >100 µM | CC[C@H](C)[C@H](NC(=O)CN)C(=O)N[C@@H](Cc1ccccc1)C(=O)N[C@@H](CO)C(=O)N[C@@H](CCCCN)C(=O)N[C@@H](CC(C)C)C(=O)N[C@@H](C)C(=O)N1CCC[C@@H]1C(=O)N[C@@H](CCCCN)C(=O)N[C@@H](CCCCN)C(=O)N[C@H](C(=O)N[C@@H](CCCCN)C(=O)N[C@@H](CC(N)=O)C(=O)N[C@@H](CC(C)C)C(=O)N[C@@H](CC(C)C)C(=O)N[C@H](C(=O)N[C@@H](CO)C(=O)NCC(=O)N[C@@H](CC(C)C)C(=O)N[C@@H](CCCCN)C(=O)NCC(N)=O)[C@@H](C)CC)[C@@H](C)CC [peptide 4] (H-GIFSKLA[dP]KKIKNLLISGLKG-NH2) | – | – | – | – | – | – | – | 12.5 µM (≈ 27.8 µg/mL) | – | 12.5 µM (≈ 27.8 µg/mL) | – | >100 µM | 6.25 µM (≈ 13.9 µg/mL) | – | 25 µM (≈ 55.6 µg/mL) | – |

| SMILES | MIC (S. aureus MDR #1; MDR #1) | MIC (S. aureus MDR #3; MDR #3) | MIC (S. aureus MDR #2; MDR #2) | MIC (S. aureus ATCC 25923; ATCC 25923) | remaining at 1 h, 200 μM (in vitro) | remaining at 3 h, 200 μM (in vitro) | remaining at 4 h, 200 μM (in vitro) | remaining at 5 h, 200 μM (in vitro) | remaining at 16 h, 200 μM (in vitro) | remaining at 24 h, 200 μM (in vitro) | MIC (S. aureus MDR #1; [2]) | MIC (A. baumannii ATCC 19606) | MIC (S. aureus MDR #3; [3]) | MIC [1] | MIC (S. aureus MDR #2; MDR clinical isolate 13165968, broth microdilution, 16–18 h at 37 °C, three identical readings of four independent experiments) | MIC (S. aureus MDR #4) | MIC (E. coli ATCC 25922) | MIC (S. aureus ATCC 25923; broth microdilution, Muller Hinton, 16–18 h at 37 °C, three identical readings of four independent experiments) | MIC (P. aeruginosa ATCC 25853) | lethal dose causing 50% killing (LD50) (HaCaT cells) |
| --- | --- | --- | --- | --- | --- | --- | --- | --- | --- | --- | --- | --- | --- | --- | --- | --- | --- | --- | --- | --- |
| CC[C@H](C)[C@H](NC(=O)CN)C(=O)N[C@@H](Cc1ccccc1)C(=O)N[C@@H](CO)C(=O)N[C@@H](CCCCN)C(=O)N[C@@H](CC(C)C)C(=O)N[C@@H](C)C(=O)NCC(=O)N[C@@H](CCCCN)C(=O)N[C@@H](CCCCN)C(=O)N[C@H](C(=O)N[C@@H](CCCCN)C(=O)N[C@@H](CC(N)=O)C(=O)N[C@@H](CC(C)C)C(=O)N[C@@H](CC(C)C)C(=O)N[C@H](C(=O)N[C@@H](CO)C(=O)NCC(=O)N[C@@H](CC(C)C)C(=O)N[C@@H](CCCCN)C(=O)NCC(N)=O)[C@@H](C)CC)[C@@H](C)CC [peptide 1] (H-GIFSKLAGKKIKNLLISGLKG-NH2) | – | – | 100 µM (≈ 218 µg/mL) | >100 µM | – | – | – | – | – | – | >100 µM | 1.56 µM (≈ 3.41 µg/mL) | 100 µM (≈ 218 µg/mL) | 3.12 µM (≈ 6.82 µg/mL) | – | >100 µM | 1.56 µM (≈ 3.41 µg/mL) | – | 3.12 µM (≈ 6.82 µg/mL) | > 50 µM |
